{"source": "the NIST ThermoML archive (doi:10.1016/j.jct.2016.03.021)", "experiment": "wn = mass fraction of the nth substance listed", "details": "293.15 K, Liquid; for mass density: Vibrating tube method", "note": "± gives the expanded uncertainty stated by the source."}
{"compound": "NCCO", "note": "[2-aminoethan-1-ol] + O", "values": [{"measurement": "viscosity", "setting": "93 kPa, Concentric cylinders viscometry, w1 = 0.1", "result": "1.409 ± 0.029", "unit": "mPa·s"}, {"measurement": "viscosity", "setting": "93 kPa, Concentric cylinders viscometry, w1 = 0.2", "result": "1.982 ± 0.041", "unit": "mPa·s"}, {"measurement": "viscosity", "setting": "93 kPa, Concentric cylinders viscometry, w1 = 0.3", "result": "2.967 ± 0.061", "unit": "mPa·s"}, {"measurement": "viscosity", "setting": "93 kPa, Concentric cylinders viscometry, w1 = 0.4", "result": "4.326 ± 0.088", "unit": "mPa·s"}, {"measurement": "viscosity", "setting": "100 kPa, Falling or rolling sphere viscometry, w1 = 0.1001", "result": "1.435 ± 0.044", "unit": "mPa·s"}, {"measurement": "viscosity", "setting": "100 kPa, Falling or rolling sphere viscometry, w1 = 0.2", "result": "1.968 ± 0.061", "unit": "mPa·s"}, {"measurement": "viscosity", "setting": "100 kPa, Falling or rolling sphere viscometry, w1 = 0.3005", "result": "2.913 ± 0.09", "unit": "mPa·s"}, {"measurement": "viscosity", "setting": "100 kPa, Falling or rolling sphere viscometry, w1 = 0.4001", "result": "4.315 ± 0.13", "unit": "mPa·s"}, {"measurement": "mass density", "setting": "100 kPa, w1 = 0.1001", "result": "1002.5 ± 0.7", "unit": "kg/m3"}, {"measurement": "mass density", "setting": "100 kPa, w1 = 0.2", "result": "1006.9 ± 0.7", "unit": "kg/m3"}, {"measurement": "mass density", "setting": "100 kPa, w1 = 0.3005", "result": "1012.3 ± 0.7", "unit": "kg/m3"}, {"measurement": "mass density", "setting": "100 kPa, w1 = 0.4", "result": "1018.1 ± 0.7", "unit": "kg/m3"}, {"measurement": "viscosity", "setting": "101 kPa, Falling or rolling sphere viscometry, w1 = 0.1", "result": "1.435 ± 0.044", "unit": "mPa·s"}, {"measurement": "viscosity", "setting": "101 kPa, Falling or rolling sphere viscometry, w1 = 0.2", "result": "1.968 ± 0.061", "unit": "mPa·s"}, {"measurement": "viscosity", "setting": "101 kPa, Falling or rolling sphere viscometry, w1 = 0.3", "result": "2.913 ± 0.09", "unit": "mPa·s"}, {"measurement": "viscosity", "setting": "101 kPa, Falling or rolling sphere viscometry, w1 = 0.4", "result": "4.315 ± 0.13", "unit": "mPa·s"}, {"measurement": "mass density", "setting": "500 kPa, w1 = 0.1001", "result": "1002.7 ± 0.7", "unit": "kg/m3"}, {"measurement": "mass density", "setting": "500 kPa, w1 = 0.2", "result": "1007 ± 0.7", "unit": "kg/m3"}, {"measurement": "mass density", "setting": "500 kPa, w1 = 0.3005", "result": "1012.5 ± 0.7", "unit": "kg/m3"}, {"measurement": "mass density", "setting": "500 kPa, w1 = 0.4", "result": "1018.1 ± 0.7", "unit": "kg/m3"}, {"measurement": "mass density", "setting": "1000 kPa, w1 = 0.1001", "result": "1002.9 ± 0.7", "unit": "kg/m3"}, {"measurement": "mass density", "setting": "1000 kPa, w1 = 0.2", "result": "1007.2 ± 0.7", "unit": "kg/m3"}, {"measurement": "mass density", "setting": "1000 kPa, w1 = 0.3005", "result": "1012.7 ± 0.7", "unit": "kg/m3"}, {"measurement": "mass density", "setting": "1000 kPa, w1 = 0.4", "result": "1018.3 ± 0.7", "unit": "kg/m3"}, {"measurement": "mass density", "setting": "2000 kPa, w1 = 0.1001", "result": "1003.3 ± 0.7", "unit": "kg/m3"}, {"measurement": "mass density", "setting": "2000 kPa, w1 = 0.2", "result": "1007.6 ± 0.7", "unit": "kg/m3"}, {"measurement": "mass density", "setting": "2000 kPa, w1 = 0.3005", "result": "1013 ± 0.7", "unit": "kg/m3"}, {"measurement": "mass density", "setting": "2000 kPa, w1 = 0.4", "result": "1018.6 ± 0.7", "unit": "kg/m3"}, {"measurement": "viscosity", "setting": "5000 kPa, Falling or rolling sphere viscometry, w1 = 0.1001", "result": "1.435 ± 0.044", "unit": "mPa·s"}, {"measurement": "viscosity", "setting": "5000 kPa, Falling or rolling sphere viscometry, w1 = 0.2", "result": "1.97 ± 0.061", "unit": "mPa·s"}, {"measurement": "viscosity", "setting": "5000 kPa, Falling or rolling sphere viscometry, w1 = 0.3005", "result": "2.921 ± 0.09", "unit": "mPa·s"}, {"measurement": "viscosity", "setting": "5000 kPa, Falling or rolling sphere viscometry, w1 = 0.4001", "result": "4.34 ± 0.13", "unit": "mPa·s"}, {"measurement": "mass density", "setting": "5000 kPa, w1 = 0.1001", "result": "1004.6 ± 0.7", "unit": "kg/m3"}, {"measurement": "mass density", "setting": "5000 kPa, w1 = 0.2", "result": "1008.7 ± 0.7", "unit": "kg/m3"}, {"measurement": "mass density", "setting": "5000 kPa, w1 = 0.3005", "result": "1014.1 ± 0.7", "unit": "kg/m3"}, {"measurement": "mass density", "setting": "5000 kPa, w1 = 0.4", "result": "1019.6 ± 0.7", "unit": "kg/m3"}, {"measurement": "viscosity", "setting": "10000 kPa, Falling or rolling sphere viscometry, w1 = 0.1001", "result": "1.434 ± 0.044", "unit": "mPa·s"}, {"measurement": "viscosity", "setting": "10000 kPa, Falling or rolling sphere viscometry, w1 = 0.2", "result": "1.969 ± 0.061", "unit": "mPa·s"}, {"measurement": "viscosity", "setting": "10000 kPa, Falling or rolling sphere viscometry, w1 = 0.3005", "result": "2.93 ± 0.09", "unit": "mPa·s"}, {"measurement": "viscosity", "setting": "10000 kPa, Falling or rolling sphere viscometry, w1 = 0.4001", "result": "4.368 ± 0.14", "unit": "mPa·s"}, {"measurement": "mass density", "setting": "10000 kPa, w1 = 0.1001", "result": "1006.7 ± 0.7", "unit": "kg/m3"}, {"measurement": "mass density", "setting": "10000 kPa, w1 = 0.2", "result": "1010.7 ± 0.7", "unit": "kg/m3"}, {"measurement": "mass density", "setting": "10000 kPa, w1 = 0.3005", "result": "1016 ± 0.7", "unit": "kg/m3"}, {"measurement": "mass density", "setting": "10000 kPa, w1 = 0.4", "result": "1021.4 ± 0.7", "unit": "kg/m3"}, {"measurement": "mass density", "setting": "15000 kPa, w1 = 0.1001", "result": "1008.8 ± 0.7", "unit": "kg/m3"}, {"measurement": "mass density", "setting": "15000 kPa, w1 = 0.2", "result": "1012.6 ± 0.7", "unit": "kg/m3"}, {"measurement": "mass density", "setting": "15000 kPa, w1 = 0.3005", "result": "1017.7 ± 0.7", "unit": "kg/m3"}, {"measurement": "mass density", "setting": "15000 kPa, w1 = 0.4", "result": "1023.1 ± 0.7", "unit": "kg/m3"}, {"measurement": "viscosity", "setting": "20000 kPa, Falling or rolling sphere viscometry, w1 = 0.1001", "result": "1.43 ± 0.044", "unit": "mPa·s"}, {"measurement": "viscosity", "setting": "20000 kPa, Falling or rolling sphere viscometry, w1 = 0.2", "result": "1.973 ± 0.061", "unit": "mPa·s"}, {"measurement": "viscosity", "setting": "20000 kPa, Falling or rolling sphere viscometry, w1 = 0.3005", "result": "2.952 ± 0.091", "unit": "mPa·s"}, {"measurement": "viscosity", "setting": "20000 kPa, Falling or rolling sphere viscometry, w1 = 0.4001", "result": "4.426 ± 0.14", "unit": "mPa·s"}, {"measurement": "mass density", "setting": "20000 kPa, w1 = 0.1001", "result": "1010.9 ± 0.7", "unit": "kg/m3"}, {"measurement": "mass density", "setting": "20000 kPa, w1 = 0.2", "result": "1014.5 ± 0.7", "unit": "kg/m3"}, {"measurement": "mass density", "setting": "20000 kPa, w1 = 0.3005", "result": "1019.6 ± 0.7", "unit": "kg/m3"}, {"measurement": "mass density", "setting": "20000 kPa, w1 = 0.4", "result": "1024.8 ± 0.7", "unit": "kg/m3"}, {"measurement": "viscosity", "setting": "30000 kPa, Falling or rolling sphere viscometry, w1 = 0.1001", "result": "1.43 ± 0.044", "unit": "mPa·s"}, {"measurement": "viscosity", "setting": "30000 kPa, Falling or rolling sphere viscometry, w1 = 0.2", "result": "1.977 ± 0.061", "unit": "mPa·s"}, {"measurement": "viscosity", "setting": "30000 kPa, Falling or rolling sphere viscometry, w1 = 0.3005", "result": "2.972 ± 0.092", "unit": "mPa·s"}, {"measurement": "viscosity", "setting": "30000 kPa, Falling or rolling sphere viscometry, w1 = 0.4001", "result": "4.475 ± 0.14", "unit": "mPa·s"}, {"measurement": "mass density", "setting": "30000 kPa, w1 = 0.1001", "result": "1015.1 ± 0.7", "unit": "kg/m3"}, {"measurement": "mass density", "setting": "30000 kPa, w1 = 0.2", "result": "1018.4 ± 0.7", "unit": "kg/m3"}, {"measurement": "mass density", "setting": "30000 kPa, w1 = 0.3005", "result": "1023.2 ± 0.7", "unit": "kg/m3"}, {"measurement": "mass density", "setting": "30000 kPa, w1 = 0.4", "result": "1028.3 ± 0.7", "unit": "kg/m3"}, {"measurement": "viscosity", "setting": "40000 kPa, Falling or rolling sphere viscometry, w1 = 0.1001", "result": "1.429 ± 0.044", "unit": "mPa·s"}, {"measurement": "viscosity", "setting": "40000 kPa, Falling or rolling sphere viscometry, w1 = 0.2", "result": "1.983 ± 0.061", "unit": "mPa·s"}, {"measurement": "viscosity", "setting": "40000 kPa, Falling or rolling sphere viscometry, w1 = 0.3005", "result": "2.99 ± 0.092", "unit": "mPa·s"}, {"measurement": "viscosity", "setting": "40000 kPa, Falling or rolling sphere viscometry, w1 = 0.4001", "result": "4.528 ± 0.14", "unit": "mPa·s"}, {"measurement": "mass density", "setting": "40000 kPa, w1 = 0.1001", "result": "1019.1 ± 0.7", "unit": "kg/m3"}, {"measurement": "mass density", "setting": "40000 kPa, w1 = 0.2", "result": "1022.1 ± 0.7", "unit": "kg/m3"}, {"measurement": "mass density", "setting": "40000 kPa, w1 = 0.3005", "result": "1026.6 ± 0.7", "unit": "kg/m3"}, {"measurement": "mass density", "setting": "40000 kPa, w1 = 0.4", "result": "1031.6 ± 0.7", "unit": "kg/m3"}, {"measurement": "mass density", "setting": "50000 kPa, w1 = 0.1001", "result": "1023 ± 0.7", "unit": "kg/m3"}, {"measurement": "mass density", "setting": "50000 kPa, w1 = 0.2", "result": "1025.8 ± 0.7", "unit": "kg/m3"}, {"measurement": "mass density", "setting": "50000 kPa, w1 = 0.3005", "result": "1030 ± 0.7", "unit": "kg/m3"}]}
